The text below walks through data of patent US11116767B2, “3,5-disubstituted pyrazoles useful as checkpoint kinase 1 (Chk1) inhibitors, and their preparations and applications” (PHARMAENGINE, INC., priority 2016, dated 2021).

The target of one data set is T1, Chk1 (Homo sapiens, UniProt O14757).
T1 construct: purchased BPS 40039
T1 sequence (O14757 1-476): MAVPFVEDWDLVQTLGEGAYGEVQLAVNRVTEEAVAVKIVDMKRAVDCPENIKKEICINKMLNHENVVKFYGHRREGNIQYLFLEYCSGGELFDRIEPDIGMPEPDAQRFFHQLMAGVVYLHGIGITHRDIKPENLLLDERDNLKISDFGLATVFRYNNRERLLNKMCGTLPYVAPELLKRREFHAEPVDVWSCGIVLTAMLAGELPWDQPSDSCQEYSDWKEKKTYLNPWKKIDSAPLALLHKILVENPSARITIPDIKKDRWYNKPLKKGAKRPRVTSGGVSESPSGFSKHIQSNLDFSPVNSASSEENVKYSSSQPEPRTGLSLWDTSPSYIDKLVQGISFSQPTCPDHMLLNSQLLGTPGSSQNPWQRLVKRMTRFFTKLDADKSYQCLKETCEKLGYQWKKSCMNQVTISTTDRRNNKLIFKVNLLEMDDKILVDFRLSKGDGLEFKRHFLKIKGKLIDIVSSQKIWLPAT
As to the kind of experiment: biochemical. To be noted: ADP-Glo; read-out: Chk1 in vitro enzyme activity (grade). (ADP-Glo turns the ADP formed in a reaction into a luminescent signal.)

Another data set relates to MDA-MB-231. As to the kind of experiment: Cancer cell growth inhibition assay (CellTiter-Glo), MDA-MB-231. Particulars: Homo sapiens, MDA-MB-231; 72 hours, cellular ATP content; read-out: MDA-MB-231 anti cell proliferation activity (grade). The format is cell-based, Human. On the procedure: (§1) Human cancer cell lines were purchased from American Type Culture Collection (Manassas, Va.). The trypsinized cells were diluted to required volume at densities of 44,000 cells/ml. 90 ul cell slurry was dispensed per well in 96-well flat-bottomed plates with the recommended culture medium. The cells were incubated for 24 hours at 37° C. in 5% CO2 under humidified condition. The cells were then incubated with compounds at various concentrations for 72 hours in culture medium supplemented with 0.5% (v/v) FBS. Growth inhibition was assessed by assay of cellular ATP content using CellTiter-Glo reagent to each well. Luminesce was read on Envision. The inhibition rate (%)=(Max signal compound signal)/(Max signal Min signal)×100.
(In ATP-based viability assays light output follows the ATP content of the culture.)

The next data set deals with HT-29. In words: Cancer cell growth inhibition assay (CellTiter-Glo), HT-29. It counts as cell-based, Human. To be noted: Homo sapiens, HT-29; 72 hours, cellular ATP content; read-out: HT-29 anti cell proliferation activity (grade). How it is done: as §1
A short description of data set [1]: Pharmacokinetics study in rats, intravenous. The format is in vivo, SD rats. Particulars: rat, IV; for AUC(0-inf) / AUC(0-t) / clearance / MRT / half-life / Vd: male, SD, plasma, 10 mg/kg; for AUC(0-inf): read-out: AUC0-inf; for AUC(0-t): read-out: AUC0-t; for clearance: read-out: CL (converted); for MRT: read-out: MRT; for half-life: read-out: t½ (converted); for Vd: iv; for half-life and exposure compared with LY2606368: 10 mg/kg (LY2606368 5 mg/kg). On the procedure: Compounds were formulated in 30% SEB-β-CD (Zhiyuan Bio-technology) with 1 molar equivalents of HCl (pH adjusted to 3-5). Male SD rats (280-350 g) were purchased from Medical Laboratory Animal Center of Guangdong. Three rats were used for each PK study. […] At various time points after compound administration, approximately 0.2˜0.3 mL of blood was collected by cutting the end of tail into tubes containing K2-EDTA. The plasma was separated via centrifugation and stored at −80° C. A PE Sciex API-3000 LC-MS/MS system (Applied Biosystems, Inc.) was used to analyze compound concentrations in plasma.
PK studies of ChK1 inhibitors were conducted in rats after intravenous administration at 10 mg/kg. […]. […]

Another data set addresses T2, Chk2 (Homo sapiens, UniProt O96017).
T2 construct: purchased Carna 02-162
In words: biochemical. To be noted: ADP-Glo; read-out: Chk2 in vitro enzyme activity (grade).

A short description of data set [2]: Human liver S9 metabolic stability. It counts as in vitro ADME. To be noted: for Percentage Remaining %: 1 μM, 37° C. On the procedure: Compounds (1 μM) were incubated with human liver S9 (from BD Gentest) at final liver microsomal protein concentration of 0.5 mg/mL for 0, 5, 15, 30, 45 min at 37° C. The remaining compounds in the reaction were measured by LC-MS/MS. The half-life (T½) 0.693/K (K is the rate constant from a plot of ln [concentration] vs. incubation time).

Read-outs that look alike come from different tables or passages of the source.

T2 sequence (O96017 whole entry): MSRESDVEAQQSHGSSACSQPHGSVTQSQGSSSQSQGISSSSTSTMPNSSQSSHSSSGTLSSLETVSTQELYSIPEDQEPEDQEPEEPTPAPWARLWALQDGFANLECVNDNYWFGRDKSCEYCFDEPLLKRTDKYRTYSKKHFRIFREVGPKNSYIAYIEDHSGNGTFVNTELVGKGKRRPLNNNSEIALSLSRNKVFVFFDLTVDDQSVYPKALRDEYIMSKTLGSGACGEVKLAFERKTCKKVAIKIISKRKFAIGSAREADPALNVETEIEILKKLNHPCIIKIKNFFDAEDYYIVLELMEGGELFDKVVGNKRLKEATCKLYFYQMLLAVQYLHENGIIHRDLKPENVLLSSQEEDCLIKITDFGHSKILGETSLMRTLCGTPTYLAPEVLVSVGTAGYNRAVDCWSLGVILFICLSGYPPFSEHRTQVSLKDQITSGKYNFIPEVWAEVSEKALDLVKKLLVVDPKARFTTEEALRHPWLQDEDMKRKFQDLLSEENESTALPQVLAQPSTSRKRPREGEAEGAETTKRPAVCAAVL

As a reminder, the melting point is the temperature of the solid-liquid transition. As for `COc1ccc(F)c(OCCCN)c1-c1cc(Nc2cnc(C#N)cn2)n[nH]1` [Compound 1, 5-(5-(2-(3-Aminopropoxy)-3-fluoro-6-methoxyphenyl)-1H-pyrazol-3-ylamino)pyrazine-2-carbonitrile], the melting point is 221 to 224 °C. Moreover, the IC50 at Chk1 is 1 to 10 nM. Also, the IC50 with MDA-MB-231 lay in the range of 100 to 500 nM. The IC50 in the data set on HT-29 was in the range of 100 to 500 nM.

`COc1c(F)ccc(OCCCN)c1-c1cc(Nc2cnc(C#N)cn2)n[nH]1` [Compound 2, 5-((5-(6-(3-aminopropoxy)-3-fluoro-2-methoxyphenyl)-1H-pyrazol-3-yl)amino)pyrazine-2-carbonitrile] had a melting point of 80 to 84 °C. Also, on Chk1, the IC50 was ≤ 1 nM. Further, the IC50 in the data set on MDA-MB-231 lay within 100 to 500 nM. The IC50 in the data set on HT-29 was 100 to 500 nM.

As usually defined, the MRT is a mean duration of stay, worked out from the concentration-time curve. In the case of `COc1cc(Br)cc(OCCCN)c1-c1cc(Nc2cnc(C#N)cn2)n[nH]1` [Compound 5, 5-(5-(2-(3-Aminopropoxy)-4-bromo-6-methoxyphenyl)-1H-pyrazol-3-ylamino)pyrazine-2-carbonitrile], the melting point is 165 to 175 °C. In data set [1], the AUC(0-inf) came to 2990 ng·h/mL, the AUC(0-t) was determined as 2960 ng·h/mL, the clearance was 60 mL/min/kg and the MRT came out at 2.8 h. In data set [1], the half-life was 5.3 h; the “half-life and exposure compared with LY2606368” value is “longer half-life and higher exposure than LY2606368”. The Vd in data set [1] (read-out: Vd) was 29.5 L/kg. Also, in data set [1] (read-out: Vss), the Vd turned out to be 10.2 L/kg. Also, the IC50 on Chk2 was 50 to 100 nM. For the same compound, the IC50 on Chk1 was ≤ 1 nM. Moreover, the IC50 with MDA-MB-231 lay in the range of 50 to 100 nM. In the data set on HT-29, the IC50 was in the range of 10 to 50 nM.

Compound `COc1cc(C)cc(OCCCN)c1-c1cc(Nc2cnc(C#N)cn2)n[nH]1` [Compound 6, 5-(5-(2-(3-aminopropoxy)-6-methoxy-4-methylphenyl)-1H-pyrazol-3-ylamino)pyrazine-2-carbonitrile] had a melting point of 188 to 191 °C. The IC50 at Chk2 was 50 to 100 nM. Besides, the IC50 at Chk1 was ≤ 1 nM. In the data set with MDA-MB-231, the IC50 was 10 to 50 nM. Besides, in the data set on HT-29, the IC50 lay in the range of 10 to 50 nM.

`COc1cc(OC)c(-c2cc(Nc3cnc(C#N)cn3)n[nH]2)c(OCCCN)c1` [Compound 7, 5-(5-(2-(3-Aminopropoxy)-4,6-dimethoxyphenyl)-1H-pyrazol-3-ylamino)pyrazine-2-carbonitrile] came in with a melting point of 145 to 151 °C. Besides, on Chk2, the IC50 is 10 to 50 nM. The IC50 on Chk1 was in the range of 1 to 10 nM. The IC50 in the data set on MDA-MB-231 lay within 10 to 50 nM. In addition, the IC50 in the data set on HT-29 fell in the range of 10 to 50 nM.

As to `COc1cc(Br)cc(OCC2(CN)CC2)c1-c1cc(Nc2cnc(C#N)cn2)n[nH]1` [Compound 15, 5-(5-(2-((1-(Aminomethyl)cyclopropyl)methoxy)-4-bromo-6-methoxyphenyl)-1H-pyrazol-3-ylamino)pyrazine-2-carbonitrile], the “Percentage Remaining %” value in data set [2] (0 min) is listed as 100.00%; in data set [2] (5 min), 94.64%; in data set [2] (15 min), 93.89%; in data set [2] (30 min), 93.30%; in data set [2] (45 min) it was 87.68%. In addition, the “metabolic stability compared with LY2606368” value in data set [2] (human liver S9) is recorded as “more metabolic stable than LY2606368”. The compound further registered a half-life at 1 μM in data set [2] (human liver S9, 1 μM) of 7.99 h. In data set [1], the AUC(0-inf) was 4980 ng·h/mL. Also, the AUC(0-t) in data set [1] is 4890 ng·h/mL. Besides, the clearance in data set [1] is 63.3 mL/min/kg. Besides, in data set [1], the MRT amounted to 3.8 h. Further, in data set [1], the half-life is 7.4 h. Besides, the Vd was found to be 46.9 L/kg in data set [1] (read-out: Vd) and 19.2 L/kg in data set [1] (read-out: Vss). Besides, the “half-life and exposure compared with LY2606368” value in data set [1] is “longer half-life and higher exposure than LY2606368”. In addition, the IC50 on Chk2 is 10 to 50 nM; at Chk1, ≤ 1 nM; with MDA-MB-231, 10 to 50 nM; in the data set on HT-29, 10 to 50 nM.

In turn, `COc1cc(C)cc(OCC2(CN)CC2)c1-c1cc(Nc2cnc(C#N)cn2)n[nH]1` [Compound 16, 5-(5-(2-((1-(Aminomethyl)cyclopropyl)methoxy)-6-methoxy-4-methylphenyl)-1H-pyrazol-3-ylamino)pyrazine-2-carbonitrile] yielded a melting point of 165 to 170 °C. Moreover, on Chk2, the IC50 fell in the range of 10 to 50 nM. Further, at Chk1, the IC50 was ≤ 1 nM. For the same compound, the IC50 in the data set with MDA-MB-231 lay within 10 to 50 nM. In addition, the IC50 in the data set with HT-29 was ≤ 10 nM.

`COc1cc(OC)c(-c2cc(Nc3cnc(C#N)cn3)n[nH]2)c(OCC2(CN)CC2)c1` [Compound 17, 5-(5-(2-((1-(Aminomethyl)cyclopropyl)methoxy)-4,6-dimethoxyphenyl)-1H-pyrazol-3-ylamino)pyrazine-2-carbonitrile]: the melting point lay within 160 to 164 °C. Besides, on Chk2, the IC50 was 10 to 50 nM. For the same compound, at Chk1, the IC50 fell in the range of 1 to 10 nM. In the data set on MDA-MB-231, the IC50 was in the range of 10 to 50 nM. Further, the IC50 in the data set on HT-29 is ≤ 10 nM.

In turn, `CNCC1(COc2c(F)ccc(OC)c2-c2cc(Nc3cnc(C#N)cn3)n[nH]2)CC1` [Compound 18, 5-(5-(3-fluoro-6-methoxy-2-((1-((methylamino)methyl)cyclopropyl)methoxy)phenyl)-1H-pyrazol-3-ylamino)pyrazine-2-carbonitrile] yielded a melting point of 213 to 215 °C. Besides, the IC50 on Chk1 lay in the range of 1 to 10 nM.

With `CNCC1(COc2ccc(F)c(OC)c2-c2cc(Nc3cnc(C#N)cn3)n[nH]2)CC1` [Compound 19, 5-((5-(3-fluoro-2-methoxy-6-((1-((methylamino)methyl)cyclopropyl)methoxy)phenyl)-1H-pyrazol-3-yl)amino)pyrazine-2-carbonitrile], the melting point fell in the range of 215 to 219 °C. In addition, the IC50 on Chk1 lay within 1 to 10 nM. Further, in the data set with MDA-MB-231, the IC50 lay in the range of 100 to 500 nM. Further, the IC50 in the data set on HT-29 was in the range of 50 to 100 nM.

The compound `CNCC1(COc2cc(F)cc(OC)c2-c2cc(Nc3cnc(C#N)cn3)n[nH]2)CC1` [Compound 20, 5-(5-(4-Fluoro-2-methoxy-6-((1-((methylamino)methyl)cyclopropyl)methoxy)phenyl)-1H-pyrazol-3-ylamino)pyrazine-2-carbonitrile] returned a melting point of 228 to 230 °C. On Chk1, the IC50 is ≤ 1 nM. In the data set on MDA-MB-231, the IC50 was 10 to 50 nM. In addition, the IC50 in the data set on HT-29 is ≤ 10 nM.

On to `CCOC(=O)NCCCOc1cc(F)cc(OC)c1-c1cc(Nc2cnc(C#N)cn2)n[nH]1` [Compound 38, Ethyl 3-(2-(3-(5-cyanopyrazin-2-ylamino)-1H-pyrazol-5-yl)-5-fluoro-3-methoxyphenoxy)propylcarbamate], for which, at Chk1, the IC50 lay within 10 to 50 nM.
